# Experimental data as given in patent US20140296147A1, “METHODS OF TREATING OR PREVENTING BLOOD LOSS DURING SURGERY USING THE SERINE PROTEASE INHIBITOR MDCO-2010” (THE MEDICINES COMPANY, priority 2011, published 2014).
# Like-named read-outs stand apart in the source and are kept apart here. Marks after values point to notes of the source that are not given here.
# Assays:
# [1] = target: plasma kallikrein (Homo sapiens, UniProt P03952); conditions: active-site directed, reversible, no cofactor; cited from earlier work
# Chain of plasma kallikrein (P03952 391-638 limits assumed): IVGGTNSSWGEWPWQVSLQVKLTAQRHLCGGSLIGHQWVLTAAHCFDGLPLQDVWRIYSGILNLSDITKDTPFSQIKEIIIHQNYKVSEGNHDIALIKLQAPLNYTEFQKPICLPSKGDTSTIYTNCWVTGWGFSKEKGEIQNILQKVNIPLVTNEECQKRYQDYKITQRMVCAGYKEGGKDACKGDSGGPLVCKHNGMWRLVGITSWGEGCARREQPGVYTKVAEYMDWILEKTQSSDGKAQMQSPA
# Chain of plasma kallikrein (P03952 20-390 partner limits assumed): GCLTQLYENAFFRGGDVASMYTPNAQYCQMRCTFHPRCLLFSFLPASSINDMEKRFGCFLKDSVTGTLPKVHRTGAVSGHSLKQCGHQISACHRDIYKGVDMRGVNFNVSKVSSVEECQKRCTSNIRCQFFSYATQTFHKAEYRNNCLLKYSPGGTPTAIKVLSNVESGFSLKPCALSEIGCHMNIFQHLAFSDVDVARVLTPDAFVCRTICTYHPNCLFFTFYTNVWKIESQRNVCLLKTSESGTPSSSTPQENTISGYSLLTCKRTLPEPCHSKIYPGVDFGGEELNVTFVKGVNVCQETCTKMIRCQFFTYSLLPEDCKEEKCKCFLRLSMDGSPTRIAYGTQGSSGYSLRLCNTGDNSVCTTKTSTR
# [2] = test system: tPA-induced fibrinolysis; assay: Antifibrinolytic effect: D-dimer generation and tPA-induced lysis in CABG patients; assay type: in vivo, human; conditions: five escalating doses, FIG. 2
# Procedure: (§1) A Phase IIa, single-center, double-blind, placebo-controlled dose-escalation study was performed to investigate MDCO-2010 in patients undergoing elective, primary CABG (coronary artery bypass graft) surgery.
# (§2) Initial heparin dosing (400 units/kg) and heparin maintenance was guided by the Hepcon HMS, with a kaolin ACT target of 480 seconds. Immediately after heparin bolus, study drug administration was initiated with a loading (bolus) dose followed by a continuous infusion of the maintenance dose via a central venous catheter until sternal closure. Patients were randomized in a 3:1 ratio to receive either one of five MDCO-2010 doses (continuous infusion of 12.5, 25, 62.5, 109 or 219 μg/kg/h maintenance dose; 24 patients) or saline as placebo (8 patients).
# [3] = target: coagulation Factor Xa (Homo sapiens, UniProt P00742); conditions: cited from earlier work
# Chain of coagulation Factor Xa (P00742 235-488 limits assumed): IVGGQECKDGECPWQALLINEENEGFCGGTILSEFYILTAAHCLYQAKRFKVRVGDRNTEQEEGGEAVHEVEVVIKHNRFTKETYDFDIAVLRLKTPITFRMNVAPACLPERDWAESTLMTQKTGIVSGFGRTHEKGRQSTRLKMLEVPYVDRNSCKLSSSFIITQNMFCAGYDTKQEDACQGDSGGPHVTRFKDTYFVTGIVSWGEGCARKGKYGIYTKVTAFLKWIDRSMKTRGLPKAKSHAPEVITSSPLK
# Chain of coagulation Factor Xa (P00742 41-179 partner limits assumed): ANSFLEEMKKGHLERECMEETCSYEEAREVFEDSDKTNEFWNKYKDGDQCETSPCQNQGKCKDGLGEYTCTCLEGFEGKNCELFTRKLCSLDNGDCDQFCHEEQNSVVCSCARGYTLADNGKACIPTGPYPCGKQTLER
# [4] = test system: patients undergoing elective, primary CABG (coronary artery bypass graft) surgery; assay: Safety markers and safety profile in CABG patients; assay type: in vivo, human
# Procedure: as §1, §2
# [5] = test system: patients undergoing elective, primary CABG (coronary artery bypass graft) surgery; assay: Phase IIa placebo-controlled dose-escalation study: postoperative blood loss and transfusions; assay type: in vivo, human
# Procedure: as §1
# After independent ethics committee approval and written informed consent, thirty two patients underwent CABG surgery (patient characteristics shown in Table 1) through midline sternotomy using minimized extracorporeal circulation (MECC, priming volume of 600 mL).
# as §2, with “patients). […]” for “patients).”
# loading dose 5 μg/kg, maintenance dose 12.5 μg/kg/h; pump prime 0.02 mg; 3 patients loading dose 11 μg/kg, maintenance dose 25 μg/kg/h; pump prime 0.04 mg; 3 patients loading dose 27 μg/kg, maintenance dose 62.5 μg/kg/h; pump prime 0.09 mg; 6 patients loading dose 47 μg/kg, maintenance dose 109 μg/kg/h; pump prime 0.18 mg; 6 patients loading dose 94 μg/kg, maintenance dose 219 μg/kg/h; pump prime 0.35 mg; 6 patients The loading dose was administered over a five minute period of time in a 10 mL infusion. The maintenance dose was administered as a continuous infusion with a constant flow rate of 23 mL/h for the duration of procedure. MDCO-2010 was also added to the pump prime fluid to the targeted plasma concentration. The pump prime was supplied as a 10 mL load.
# [6] = target: coagulation Factor XIa (Homo sapiens, UniProt P03951); conditions: cited from earlier work
# Chain of coagulation Factor XIa (P03951 388-625 limits assumed): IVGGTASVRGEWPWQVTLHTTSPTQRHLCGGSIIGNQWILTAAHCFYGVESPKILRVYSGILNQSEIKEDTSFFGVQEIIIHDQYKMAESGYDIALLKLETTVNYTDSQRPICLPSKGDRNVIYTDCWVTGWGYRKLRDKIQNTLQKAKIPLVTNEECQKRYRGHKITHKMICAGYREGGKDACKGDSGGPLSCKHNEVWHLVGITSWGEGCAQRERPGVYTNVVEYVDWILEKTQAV
# Chain of coagulation Factor XIa (P03951 19-387 partner limits assumed): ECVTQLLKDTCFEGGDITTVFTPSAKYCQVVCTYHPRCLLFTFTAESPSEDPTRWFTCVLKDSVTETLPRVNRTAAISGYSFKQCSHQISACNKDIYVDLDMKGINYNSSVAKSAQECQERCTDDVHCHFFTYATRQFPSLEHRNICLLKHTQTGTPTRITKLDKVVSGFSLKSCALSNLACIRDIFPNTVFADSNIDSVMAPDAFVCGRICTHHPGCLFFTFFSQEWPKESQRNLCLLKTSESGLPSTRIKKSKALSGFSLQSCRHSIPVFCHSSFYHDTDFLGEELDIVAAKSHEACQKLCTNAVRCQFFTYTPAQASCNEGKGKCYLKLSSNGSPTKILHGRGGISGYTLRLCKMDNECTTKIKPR
# [7] = test system: intrinsic and extrinsic pathways; assay: Anticoagulant effect: ACT, aPTT and ROTEM coagulation times in CABG patients; assay type: in vivo, human; conditions: five escalating doses, FIG. 3
# Procedure: as §1, §2
# [8] = target: plasmin (Homo sapiens, UniProt P00747); conditions: active-site directed, reversible, no cofactor; cited from earlier work
# Chain of plasmin (P00747 581-810 limits assumed): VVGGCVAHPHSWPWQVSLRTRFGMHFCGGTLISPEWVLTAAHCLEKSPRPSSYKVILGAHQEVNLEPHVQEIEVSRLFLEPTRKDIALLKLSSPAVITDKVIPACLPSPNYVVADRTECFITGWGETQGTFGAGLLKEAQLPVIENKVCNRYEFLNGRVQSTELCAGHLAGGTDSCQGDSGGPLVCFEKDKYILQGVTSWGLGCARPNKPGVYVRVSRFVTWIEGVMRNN
# Chain of plasmin (P00747 97-580 partner limits assumed): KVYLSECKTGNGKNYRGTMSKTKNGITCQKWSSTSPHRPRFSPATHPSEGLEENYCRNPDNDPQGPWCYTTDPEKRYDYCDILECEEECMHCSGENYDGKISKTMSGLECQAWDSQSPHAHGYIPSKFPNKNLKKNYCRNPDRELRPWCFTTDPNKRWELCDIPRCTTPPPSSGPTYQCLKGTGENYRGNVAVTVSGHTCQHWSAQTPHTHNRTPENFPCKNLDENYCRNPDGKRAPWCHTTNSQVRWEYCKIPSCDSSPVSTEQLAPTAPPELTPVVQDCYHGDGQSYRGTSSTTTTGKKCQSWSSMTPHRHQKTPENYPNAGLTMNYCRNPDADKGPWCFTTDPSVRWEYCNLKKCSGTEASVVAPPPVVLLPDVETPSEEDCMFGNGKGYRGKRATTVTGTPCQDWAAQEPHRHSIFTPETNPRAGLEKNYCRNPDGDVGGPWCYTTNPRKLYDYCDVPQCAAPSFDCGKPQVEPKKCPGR
# [9] = Plasma pharmacokinetics of MDCO-2010 (LC/MS/MS, non-compartmental analysis) during CABG surgery; assay type: in vivo, human; conditions: for half-life / clearance / Vd / AUC(0-inf) / AUC(0-t) / Cmax: human, plasma
# Procedure: Nominal blood sampling times for PK analysis were pre-dose (T1, pre-heparin) and at 10 min (pre-CBP), 15 min, 30 min, 60 min (or just before cessation of CPB), at the end of infusion (sternal closure), 15 min, 30 min, and at 4 hours post-end of infusion. Actual times were calculated for each patient and used for PK analysis.
# MDCO-2010 was measured in plasma by liquid chromatography with tandem mass spectrometry (LC/MS/MS).
# Plasma concentrations versus time data were analyzed by non-compartmental analysis using the program WinNonlin Professional Version 5.3 (Pharsight, Mountain View, Calif., USA). Actual sampling times were used for the evaluation.
# The following parameters were determined: • AUC0-tlast=area under the MDCO-2010 concentration versus time curve from dosing time to the last time point with a value above the lower limit of quantitation (LLOQ), calculated by linear/log trapezoidal method which uses the linear trapezoidal rule up to Cmax and log trapezoidal rule for the remainder of the curve • AUC0-inf=area under the concentration-time curve from […]; calculated as AUC0-tlast+AUCexpol, where AUCexpol=Clast/λ • Css=steady-state plasma concentration calculated by taking the average of the concentrations in T4 to T7 • Cmax=maximum concentration, directly taken from measured values • t1/2=apparent terminal elimination half-life determined by log-linear regression • CL=total body clearance • Vss=volume of distribution at steady state
# Descriptive statistics (number of subjects, arithmetic means, standard deviation (SD), geometric means, medians, minimum and maximum values) were determined for all PK variables, separately for each treatment. Values below the LLOQ of the assay were taken as zero for descriptive statistics of concentrations. For AUC calculations, values below LLOQ were taken as zero if no quantifiable concentrations were found before the value, as missing if quantifiable concentrations were found before and after the value, and also as missing if quantifiable concentrations were found before, but not after the value. Mean (±SD) concentration time plots were provided for each treatment group using linear and semi-logarithmic scale.
# Dose proportionality was assessed by the power model using SAS Version 9 (SAS Institute Inc., Cary, N.C.).
# The mean values for PK parameters per dose group (mean (±SD) pharmacokinetic variables of MDCO-2010 administered via IV infusion during CABG surgery based on non-compartmental analysis) are summarized in Table 3.
# [10] = target: activated Protein C (Homo sapiens, UniProt P04070); conditions: cited from earlier work
# Chain of activated Protein C (P04070 212-461 limits assumed): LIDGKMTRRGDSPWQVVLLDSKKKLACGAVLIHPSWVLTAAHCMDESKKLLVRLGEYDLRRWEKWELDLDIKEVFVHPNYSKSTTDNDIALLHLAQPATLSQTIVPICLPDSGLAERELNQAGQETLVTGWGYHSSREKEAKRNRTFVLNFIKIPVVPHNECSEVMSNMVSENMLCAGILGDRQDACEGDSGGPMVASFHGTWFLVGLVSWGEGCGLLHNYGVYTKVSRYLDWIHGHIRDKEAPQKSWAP
# Chain of activated Protein C (P04070 43-197 partner limits assumed): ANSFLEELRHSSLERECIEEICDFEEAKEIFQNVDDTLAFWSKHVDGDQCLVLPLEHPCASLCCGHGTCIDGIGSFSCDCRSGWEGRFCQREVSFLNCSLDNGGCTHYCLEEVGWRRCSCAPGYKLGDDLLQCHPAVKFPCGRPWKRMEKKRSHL
# [11] = Cohort 1 (N = 3): loading dose 5 μg/kg, maintenance dose 12.5 μg/kg/h
# [12] = Cohort 2 (N = 3): loading dose 11 μg/kg, maintenance dose 25 μg/kg/h
# [13] = Cohort 3 (N = 6): loading dose 27 μg/kg, maintenance dose 62.5 μg/kg/h
# [14] = Cohort 4 (N = 6): loading dose 47 μg/kg, maintenance dose 109 μg/kg/h
# [15] = Cohort 5 (N = 6): loading dose 94 μg/kg, maintenance dose 219 μg/kg/h, 1 patient received additional heparin without protamine reversal
# [16] = Cohort 1, mean dose 1.88 mg, IV infusion during CABG surgery, mean
# [17] = Cohort 2, mean dose 4.99 mg, IV infusion during CABG surgery, mean
# [18] = Cohort 3, mean dose 12.33 mg, IV infusion during CABG surgery, mean
# [19] = Cohort 4, mean dose 19.57 mg, IV infusion during CABG surgery, mean
# [20] = Cohort 5, mean dose 38.01 mg, IV infusion during CABG surgery, mean
compound,measurement,setting,value
"N=C(N)c1ccc(CNC(=O)[C@H](Cc2cccc(CN)c2)NC(=O)[C@@H](CCCc2ccccc2)NS(=O)(=O)Cc2cccc(C(=O)O)c2)cc1 [MDCO-2010, 3-({1-[2-(3-Aminomethyl-phenyl)-1-(4-carbamimidoyl-benzylcarbamoyl)-ethylcarbamoyl]-4-phenyl-butylsulfamoyl}-methyl)-benzoic acid]",inhibition of plasma kallikrein,[1],potent inhibitor
same,antifibrinolytic effect (suppression of D-dimer generation and inhibition of tPA-induced lysis),[2],dose-dependent antifibrinolytic effect
same,inhibition of coagulation Factor Xa,[3],inhibits
same,"troponin T, CK-MB, prothrombin fragment F1+2, interleukins IL-6 and IL-10, ALAT, ASAT, serum creatinine vs. placebo","[4]; patients treated with MDCO-2010 vs. placebo, results not shown",No differences
same,safety profile of escalating doses,"[4]; primary CABG surgery, first-in-patient study",acceptable safety profile
same,"12 hour postoperative chest tube drainage, median ± SD",[5]; [11],450 ± 172 mL
same,Average number of transfusions per patient,[5]; [11],0
same,Patients receiving transfusions,[5]; [11],0/3
same,"12 hour postoperative chest tube drainage, median ± SD",[5]; [12],595 ± 125 mL
same,Average number of transfusions per patient,[5]; [12],0
same,Patients receiving transfusions,[5]; [12],0/3
same,Average number of transfusions per patient,[5]; [13],0.33
same,Patients receiving transfusions,[5]; [13],1/6
same,Average number of transfusions per patient,[5]; [14],0.17
same,Patients receiving transfusions,[5]; [14],1/6
same,Average number of transfusions per patient,[5]; [15],0.67†
same,Patients receiving transfusions,[5]; [15],2/6†
same,"Chest tube drainage, incidence and volume of RBC transfusions vs. placebo",[5]; MDCO-2010 vs. placebo,significantly lower
same,inhibition of coagulation Factor XIa,[6],inhibits
same,"ACT, aPTT and rotation thrombelastometry (ROTEM) coagulation times",[7],dose-related prolongation
same,inhibition of plasmin,[8],potent inhibitor
same,Css,[9]; [16],50.06 ng/mL
same,Css,[9]; [17],96.31 ng/mL
same,Css,[9]; [18],268.21 ng/mL
same,Css,[9]; [19],478.86 ng/mL
same,Css,[9]; [20],1009.17 ng/mL
same,plasma levels during the infusion,"[9]; continuous infusion, FIG. 1",stable
same,mean MDCO-2010 plasma concentrations versus dose,"[9]; five escalating doses, CABG patients",linear dose-proportional increase
same,half-life,"[9]; intravenous, following an approximately 100 minute infusion period, all cohorts, read-out: mean value for the elimination half-life",~1.38 h
same,half-life,"[9]; intravenous, after end of infusion, CABG patients, read-out: terminal half-life (converted)",1 h
same,half-life,"[9]; intravenous, range over cohorts, read-out: elimination half-life, range",1.02 to 1.7 h
same,clearance,"[9]; intravenous, 1.88 mg total dose, read-out: Total body clearance",220 ± 78 mL/min
same,clearance,"[9]; intravenous, 38.01 mg total dose, read-out: Total body clearance",153 ± 19 mL/min
same,Vd,"[9]; intravenous, all dose levels, read-out: Volume of distribution (Vss), range",12 to 17 L
same,half-life,"[9]; iv, 1.88 mg, Cohort 1, mean dose 1.88 mg, IV infusion during CABG surgery, mean, read-out: t1/2",1.02 h
same,half-life,"[9]; iv, 4.99 mg, Cohort 2, mean dose 4.99 mg, IV infusion during CABG surgery, mean, read-out: t1/2",1.21 h
same,half-life,"[9]; iv, 12.33 mg, Cohort 3, mean dose 12.33 mg, IV infusion during CABG surgery, mean, read-out: t1/2",1.26 h
same,half-life,"[9]; iv, 19.57 mg, Cohort 4, mean dose 19.57 mg, IV infusion during CABG surgery, mean, read-out: t1/2",1.74 h
same,half-life,"[9]; iv, 38.01 mg, Cohort 5, mean dose 38.01 mg, IV infusion during CABG surgery, mean, read-out: t1/2",1.72 h
same,AUC(0-inf),[9]; [16],152 ng·h/mL
same,AUC(0-t),[9]; [16],125 ng·h/mL
same,Cmax,[9]; [16],54.8 ng/mL
same,clearance,"[9]; Cohort 1, mean dose 1.88 mg, IV infusion during CABG surgery, mean, read-out: Cl",220 mL/min
same,Vd,"[9]; Cohort 1, mean dose 1.88 mg, IV infusion during CABG surgery, mean, read-out: Vss",12.7 L
same,AUC(0-inf),[9]; [17],334 ng·h/mL
same,AUC(0-t),[9]; [17],278 ng·h/mL
same,Cmax,[9]; [17],114 ng/mL
same,clearance,"[9]; Cohort 2, mean dose 4.99 mg, IV infusion during CABG surgery, mean, read-out: Cl",263 mL/min
same,Vd,"[9]; Cohort 2, mean dose 4.99 mg, IV infusion during CABG surgery, mean, read-out: Vss",16.1 L
same,AUC(0-inf),[9]; [18],991 ng·h/mL
same,AUC(0-t),[9]; [18],905 ng·h/mL
same,Cmax,[9]; [18],288 ng/mL
same,clearance,"[9]; Cohort 3, mean dose 12.33 mg, IV infusion during CABG surgery, mean, read-out: Cl",199 mL/min
same,Vd,"[9]; Cohort 3, mean dose 12.33 mg, IV infusion during CABG surgery, mean, read-out: Vss",12.3 L
same,AUC(0-inf),[9]; [19],1880 ng·h/mL
same,AUC(0-t),[9]; [19],1640 ng·h/mL
same,Cmax,[9]; [19],564 ng/mL
same,clearance,"[9]; Cohort 4, mean dose 19.57 mg, IV infusion during CABG surgery, mean, read-out: Cl",179 mL/min
same,Vd,"[9]; Cohort 4, mean dose 19.57 mg, IV infusion during CABG surgery, mean, read-out: Vss",17.4 L
same,AUC(0-inf),[9]; [20],4060 ng·h/mL
same,AUC(0-t),[9]; [20],3620 ng·h/mL
same,Cmax,[9]; [20],1150 ng/mL
same,clearance,"[9]; Cohort 5, mean dose 38.01 mg, IV infusion during CABG surgery, mean, read-out: Cl",153 mL/min
same,Vd,"[9]; Cohort 5, mean dose 38.01 mg, IV infusion during CABG surgery, mean, read-out: Vss",15.1 L
same,plasma levels abated,[9]; within 4 hours of the end of infusion,85%
same,inhibition of activated Protein C,[10],inhibits
